Experimental findings from PubChem BioAssay (NCI) are described below.

This assay has as its system MDA-MB-468 breast. The assay is described as follows: DTP human tumour cell line panel, 48 h.

Each structure is given as a SMILES string. Where “and” joins values, the source holds several entries; their conditions need not be identical. Equal values may be shown once.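 Where inhibition never reached the appropriate level, the endpoint shown equals the highest concentration tested. Otherwise, values were interpolated linearly from a five-concentration, 48-hour dose response in 96-well plates. Abbreviation: GI50, concentration required for 50% inhibition of growth. TGI denotes the concentration required for complete inhibition of growth.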 A value given as a limit tells only on which side of the number the result lay.

For the compound `COC(=O)[C@@H](C)C[C@H](Cc1ccc(F)cc1)NC(=O)c1csc([C@@H](C[C@H](C(C)C)N(C)C(=O)[C@@H](NC(=O)[C@H]2CCCCN2C)C2CC2)OC(C)=O)n1`, the GI50 (commonly the concentration at which growth is held to half of that of the control) was 138 nM and the TGI – broadly, the concentration giving total growth inhibition – was above 25000 nM.

Consider `CCCCCCCC(=O)Nc1nc2[nH]c(CN3CCN(Cc4cccc(I)c4)CC3)c(CN3CCN(Cc4cccc(I)c4)CC3)c2c(=O)[nH]1`, for which the GI50 is 858 nM and the TGI is 1640 nM.

For `Cn1cc(-c2ncnc3ccc(-c4cnc(Cl)c(NS(C)(=O)=O)c4)cc23)c2ccccc21`, the GI50 is 183 nM and the TGI came to 2350 nM.

Regarding `O=C(N/N=C\c1ccc(N(CCCl)CCCl)cc1)c1cccnc1`, the GI50 is 11000 nM and the TGI was 59600 nM.

Take `COc1ccc2c(c1)C(=O)/C(=C/c1ccc(O)cc1)O2`: the GI50 was 2400 nM and the TGI amounted to 12400 nM.

As to `COc1cc2nc(Cl)nc(Nc3cccc(C4=Nc5c(N)nc(N)nc5NC(c5ccc(F)cc5)C4)c3)c2cc1OC` (stereo not drawn), the GI50 was 1790 nM and the TGI was found to be 3390 nM.

`CO[C@H]1/C=C/O[C@@]2(C)Oc3c(C)c(O)c4c(O)c(c(/C=N/N5C(C)CN(Cc6ccc(C#N)cc6)CC5C)c(O)c4c3C2=O)NC(=O)/C(C)=C\C=C\[C@H](C)[C@H](O)[C@@H](C)[C@@H](O)[C@@H](C)[C@H](OC(C)=O)[C@@H]1C` (stereo partly drawn): the GI50 was 11000 nM and the TGI was found to be 39900 nM.

Turning to `CC[C@H](C)[C@H](NC(=O)c1ncccn1)C(=O)N(C)[C@H](C[C@@H](OC(C)=O)c1nc(C(=O)N[C@@H](Cc2ccccc2)C[C@H](C)C(=O)OC)cs1)C(C)C`, the GI50 was 757 nM and the TGI was above 25000 nM.

With `NC(CCl)=NCC12CC3CC(CC(C3)C1)C2`, the GI50 was 827 nM and the total growth inhibition concentration (TGI) turned out to be 6950 nM.

With `CCOc1ccc(Nc2ccnc3cc(Cl)ccc23)cc1`, the GI50 is 43100 nM and the TGI is above 100000 nM.

For the compound `COc1nc2c(c(=O)n1C)CN(c1ccccc1)C(=O)CN2C`, the GI50 is 13300 nM and the TGI was 80900 nM.

In the case of `N[C@@H](Cc1c[nH]c2ccccc12)C(=O)NC1CCN(Cc2c[nH]c3ccc(Cl)cc23)CC1`, the GI50 is 2430 nM and the TGI came to 5740 nM.

Regarding `CCCCCCCCCCCCCCCCCC1=NC(C)(C)CN1C(C)(C)CO`, the GI50 was 1210 nM and the TGI was 2560 nM.

As to `C#Cc1cccc(Nc2nc(C)nc3cc(NC(=O)CCl)ccc23)c1`, the GI50 is 770 nM and the TGI is 2180 nM.

Consider `COC(=O)[C@@H](C)C[C@H](Cc1ccccc1)NC(=O)c1csc([C@@H](C[C@H](C(C)C)N(C)C(=O)[C@@H](NC(=O)[C@H]2CCCCN2C)c2ccc(F)cc2)OC(C)=O)n1`, for which the GI50 is 4.17 nM and 2.5 nM and 16.3 nM; the TGI was 25000 nM and > 100000 nM.

As for `Cc1cccc2c(=O)c3c(sc12)c(NCCCN)nc1ccccc13`, the GI50 is 1430 nM and the TGI is 2940 nM.

For `Oc1c(CN2CCCCC2)ccc2cccnc12`, the GI50 is 4890 nM and the total growth inhibition concentration (TGI) worked out at 22400 nM.

`O=C(Nc1ccc(Cl)cc1)c1cc(NCc2cc(O)ccc2O)ccc1O`: the GI50 is 4810 nM and the concentration for total growth inhibition (TGI) was 26600 nM.

Take `C=C[C@@H]1CCC/C=C/[C@@H]2C[C@H](O)C[C@H]2[C@H](O)/C=C/C(=O)O1`: the GI50 is 216 nM and the total growth inhibition concentration (TGI) was found to be 611 nM.

Turning to `O=C(N/N=C/c1ccc([N+](=O)[O-])cc1)c1ccccc1Nc1ccnc(C(F)(F)F)c1`, the GI50 is 15800 nM and the TGI is 41300 nM.

On to `CC1(C)CC[C@]2(C(=O)NCCNCCN)CC[C@]3(C)C(=CC[C@@H]4[C@@]5(C)CCC(=O)C(C)(C)[C@@H]5CC[C@]43C)[C@@H]2C1`, for which the GI50 is 1710 nM and the TGI was determined as 3290 nM.

In the case of `Cc1cc(C)c([I+]c2c(C)cc(C)cc2C)c(C)c1`, the GI50 is 134 nM and the TGI stood at 672 nM.

Regarding `COc1ccc(-c2oc3ncnc(N)c3c2-c2ccc(NC(=O)Nc3cc(C(F)(F)F)ccc3F)cc2)cc1`, the GI50 is 903 nM and the concentration for total growth inhibition (TGI) is 2310 nM.

With `COc1cc(-c2n/c(=C\c3c(O)[nH]c4ccccc34)cc3c2=Nc2ccccc2-3)ccc1F`, the GI50 was 2610 nM and the TGI was 16700 nM.

Turning to `O=C1NN(C(=O)c2ccccc2)C(c2ccc(Cl)c(Cl)c2)=C/C1=C\c1ccccc1[N+](=O)[O-]`, the GI50 is 6140 nM and the TGI is above 6750 nM.

Take `COc1cc(OCCCN2CCCC2)ccc1Nc1ncc(Cl)c(Nc2ccccc2P(C)(C)=O)n1`: the GI50 is 1220 nM and the TGI was 3640 nM.

For the compound `COC1=CC(c2ccc[nH]2)=N/C1=C\c1[nH]c(C)c(CC(=O)NCc2ccccc2)c1C`, the GI50 was 1170 nM and the TGI was found to be 2630 nM.

With `NC(=O)c1ccc(I)c([N+](=O)[O-])c1`, the GI50 was 24400 nM and the TGI is above 65600 nM.

As to `C[C@]1(c2nc3c(C(N)=O)cccc3[nH]2)CCCN1`, the GI50 is 29700 nM and the TGI was above 100000 nM.

`O=c1cc(-c2ccccc2)oc2c(O)c(O)ccc12`: the GI50 was 14300 nM and the TGI stood at 79200 nM.

In the case of `Nc1ccccc1NC(=O)c1ccc(NC(=O)C/C=C/c2cccnc2)cc1`, the GI50 was 915 nM and the TGI is 2660 nM.

Turning to `COc1ccc(-c2c(NC(=O)Nc3ccc(Cl)c(C(F)(F)F)c3)cnn2-c2ccc(S(N)(=O)=O)cc2)cc1`, the GI50 is 2050 nM and the TGI was 6880 nM.

Consider `O=c1oc2ccc(F)cc2c(=O)n1-c1ccc(I)cc1F`, for which the GI50 was 375 nM and the total growth inhibition concentration (TGI) is 2450 nM.

`CCCCNC(=O)Oc1ccc(/C(=C(\C)c2ccc(OC)cc2)c2ccc(OCCN3CCCCC3)cc2)cc1`: the GI50 is 2080 nM and the TGI came to 5070 nM.

Regarding `COc1ccc2cc(C(=O)N3CCC([C@@H](C)C(=O)NCc4ccc5c(c4)OCO5)CC3)[nH]c2c1`, the GI50 was 86200 nM and the TGI is above 100000 nM.

Regarding `N#Cc1nc(-c2ccccc2)oc1S(=O)(=O)N1CCN(CCc2ccccn2)CC1`, the GI50 is 1600 nM and the TGI was 3450 nM.

For the compound `FC(F)(F)c1cccc(Oc2ccc(Nc3ncnc4ccc(OCCCN5CCOCC5)cc34)cc2Cl)c1`, the GI50 is 480 nM and the total growth inhibition concentration (TGI) stood at 2850 nM.

For `CC1(C)N=C(N)N=C(N)N1c1cccc(CCCCc2ccc(Cl)c(S(=O)(=O)F)c2)c1`, the GI50 was 10600 nM and the TGI came out at 24500 nM.

Take `N#Cc1c(N)c(C(=O)c2ccc3c(c2)OCCO3)n2c1CCCC2`: the GI50 was 2470 nM and the TGI is 23700 nM.
